Laboratory results reported in PubChem BioAssay AID2060496 (Molecular Pharmacology Branch, DTP, NCI, 2025).

System: 276233-004-R-J1-PDC complex spheroid viability
Test: Anticancer human tumor 276233-004-R-J1-PDC patient-derived colon adenocarcinoma cell line growth inhibition [GQUAD]
Details: for IC50: curve of first compound; for viability, T/C: stronger effect = lower value
Method in brief: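 Multi-cell-type spheroids of tumor cells with HUVEC and mesenchymal stem cells, treated with drug combinations. Concentrations descend in half-log steps from near clinical Cmax, or from 10 microM where Cmax is unknown; viability read-out.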

[1] = second compound 0.0316 µM, first compound 0.0316 µM
[2] = second compound 0.0316 µM, first compound 0.1 µM
[3] = second compound 0.0316 µM, first compound 0.316 µM
[4] = second compound 0.0316 µM, first compound 1 µM
[5] = second compound 0.0316 µM, first compound 3.16 µM
[6] = second compound 0.0316 µM, first compound 10 µM
[7] = second compound 0.1 µM, first compound 0.0316 µM
[8] = second compound 0.1 µM, first compound 0.1 µM
[9] = second compound 0.1 µM, first compound 0.316 µM
[10] = second compound 0.1 µM, first compound 1 µM
[11] = second compound 0.1 µM, first compound 3.16 µM
[12] = second compound 0.1 µM, first compound 10 µM
[13] = second compound 0.316 µM, first compound 0.0316 µM
[14] = second compound 0.316 µM, first compound 0.1 µM
[15] = second compound 0.316 µM, first compound 0.316 µM
[16] = second compound 0.316 µM, first compound 1 µM
[17] = second compound 0.316 µM, first compound 3.16 µM
[18] = second compound 0.316 µM, first compound 10 µM
[19] = second compound 1 µM, first compound 0.0316 µM
[20] = second compound 1 µM, first compound 0.1 µM
[21] = second compound 1 µM, first compound 0.316 µM
[22] = second compound 1 µM, first compound 1 µM
[23] = second compound 1 µM, first compound 3.16 µM
[24] = second compound 1 µM, first compound 10 µM
[25] = second compound 3.16 µM, first compound 0.0316 µM
[26] = second compound 3.16 µM, first compound 0.1 µM
[27] = second compound 3.16 µM, first compound 0.316 µM
[28] = second compound 3.16 µM, first compound 1 µM
[29] = second compound 3.16 µM, first compound 3.16 µM
[30] = second compound 3.16 µM, first compound 10 µM
[31] = second compound 10 µM, first compound 0.0316 µM
[32] = second compound 10 µM, first compound 0.1 µM
[33] = second compound 10 µM, first compound 0.316 µM
[34] = second compound 10 µM, first compound 1 µM
[35] = second compound 10 µM, first compound 3.16 µM
[36] = second compound 10 µM, first compound 10 µM
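Also: spheroids exposed to drugs for seven days.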
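For viability, T/C in this document: 100% = DMSO vehicle control viability.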

SMILES: C=CCn1c(=O)c2cnc(Nc3ccc(N4CCN(C)CC4)cc3)nc2n1-c1cccc(C(C)(C)O)n1 + CN(C)c1ccc(Nc2c3ccc(NC(=O)CCN4CCCC4)cc3nc3cc(NC(=O)CCN4CCCC4)ccc23)cc1
- IC50 (second compound 0.0316 µM): > 10 µM
- IC50 (second compound 0.1 µM): > 10 µM
- IC50 (second compound 0.316 µM): > 10 µM
- IC50 (second compound 1 µM): < 0.0316 µM
- IC50 (second compound 3.16 µM): 0.459 µM
- IC50 (second compound 10 µM): < 0.0316 µM
- viability, T/C [1]: 87.6%
- viability, T/C [2]: 86.2%
- viability, T/C [3]: 66.3%
- viability, T/C [4]: 68.4%
- viability, T/C [5]: 68.6%
- viability, T/C [6]: 88.7%
- viability, T/C [7]: 81.6%
- viability, T/C [8]: 80.5%
- viability, T/C [9]: 49%
- viability, T/C [10]: 64.7%
- viability, T/C [11]: 53.2%
- viability, T/C [12]: 67.9%
- viability, T/C [13]: 81.5%
- viability, T/C [14]: 67.3%
- viability, T/C [15]: 54.6%
- viability, T/C [16]: 51.6%
- viability, T/C [17]: 54.8%
- viability, T/C [18]: 75%
- viability, T/C [19]: 47.1%
- viability, T/C [20]: 56.2%
- viability, T/C [21]: 49.7%
- viability, T/C [22]: 42.5%
- viability, T/C [23]: 54.7%
- viability, T/C [24]: 74%
- viability, T/C [25]: 56.9%
- viability, T/C [26]: 52.5%
- viability, T/C [27]: 57.2%
- viability, T/C [28]: 38.1%
- viability, T/C [29]: 52.1%
- viability, T/C [30]: 40.2%
- viability, T/C [31]: 41.4%
- viability, T/C [32]: 45.5%
- viability, T/C [33]: 53.8%
- viability, T/C [34]: 38.9%
- viability, T/C [35]: 47.9%
- viability, T/C [36]: 54.6%

SMILES: CC(C)(O)C1CCC(Nc2ccc3ncc(-c4cccc(C(F)(F)F)c4)n3n2)CC1 (stereo unspecified) + CN(C)c1ccc(Nc2c3ccc(NC(=O)CCN4CCCC4)cc3nc3cc(NC(=O)CCN4CCCC4)ccc23)cc1
- IC50 (second compound 0.0316 µM): > 10 µM
- IC50 (second compound 0.1 µM): 2.55 µM
- IC50 (second compound 0.316 µM): > 10 µM
- IC50 (second compound 1 µM): 1.06 µM
- IC50 (second compound 3.16 µM): 0.101 µM
- IC50 (second compound 10 µM): < 0.0316 µM
- viability, T/C [1]: 90.4%
- viability, T/C [2]: 84.4%
- viability, T/C [3]: 55.8%
- viability, T/C [4]: 84%
- viability, T/C [5]: 48.6%
- viability, T/C [6]: 57%
- viability, T/C [7]: 82.6%
- viability, T/C [8]: 69.2%
- viability, T/C [9]: 62.7%
- viability, T/C [10]: 57.4%
- viability, T/C [11]: 45.2%
- viability, T/C [12]: 46%
- viability, T/C [13]: 55.9%
- viability, T/C [14]: 55.4%
- viability, T/C [15]: 50.2%
- viability, T/C [16]: 57.1%
- viability, T/C [17]: 55%
- viability, T/C [18]: 46.6%
- viability, T/C [19]: 75%
- viability, T/C [20]: 56.3%
- viability, T/C [21]: 54.4%
- viability, T/C [22]: 56.3%
- viability, T/C [23]: 50.2%
- viability, T/C [24]: 41%
- viability, T/C [25]: 67.5%
- viability, T/C [26]: 45.4%
- viability, T/C [27]: 51.3%
- viability, T/C [28]: 39%
- viability, T/C [29]: 46.8%
- viability, T/C [30]: 34%
- viability, T/C [31]: 46.3%
- viability, T/C [32]: 43.4%
- viability, T/C [33]: 41.8%
- viability, T/C [34]: 35.5%
- viability, T/C [35]: 41%
- viability, T/C [36]: 22.4%

SMILES: CCCS(=O)(=O)Nc1ccc(F)c(C(=O)c2c[nH]c3ncc(-c4ccc(Cl)cc4)cc23)c1F + CN(C)c1ccc(Nc2c3ccc(NC(=O)CCN4CCCC4)cc3nc3cc(NC(=O)CCN4CCCC4)ccc23)cc1
- IC50 (second compound 0.0316 µM): > 10 µM
- IC50 (second compound 0.1 µM): > 10 µM
- IC50 (second compound 0.316 µM): > 10 µM
- IC50 (second compound 1 µM): > 10 µM
- IC50 (second compound 3.16 µM): > 10 µM
- IC50 (second compound 10 µM): < 0.0316 µM
- viability, T/C [1]: 81.6%
- viability, T/C [2]: 83.2%
- viability, T/C [3]: 78%
- viability, T/C [4]: 102%
- viability, T/C [5]: 91%
- viability, T/C [6]: 65.2%
- viability, T/C [7]: 76.4%
- viability, T/C [8]: 80%
- viability, T/C [9]: 78.2%
- viability, T/C [10]: 77.1%
- viability, T/C [11]: 71%
- viability, T/C [12]: 70.8%
- viability, T/C [13]: 72.9%
- viability, T/C [14]: 64.3%
- viability, T/C [15]: 68.8%
- viability, T/C [16]: 63%
- viability, T/C [17]: 65.3%
- viability, T/C [18]: 55.1%
- viability, T/C [19]: 60.2%
- viability, T/C [20]: 58.2%
- viability, T/C [21]: 56.8%
- viability, T/C [22]: 65.2%
- viability, T/C [23]: 53.3%
- viability, T/C [24]: 63.4%
- viability, T/C [25]: 62.1%
- viability, T/C [26]: 56.6%
- viability, T/C [27]: 50.8%
- viability, T/C [28]: 46.1%
- viability, T/C [29]: 59.1%
- viability, T/C [30]: 55.6%
- viability, T/C [31]: 33.9%
- viability, T/C [32]: 45.9%
- viability, T/C [33]: 40.4%
- viability, T/C [34]: 38.2%
- viability, T/C [35]: 39.3%
- viability, T/C [36]: 56.6%
